According to patent publication US20240336591A1, “ORGANIC PYRIDINE-PYRAZOLE COMPOUNDS AND THEIR USES” (priority 2021, published 2024):
“Also recorded” adds a separate entry of the source.

What was measured:
Human PDE10A2 [1] = target: T1, Human PDE10A2 (Homo sapiens (Human), UniProt Q9Y233); assay: Biochemical human PDE10A activity assay - PDE10A2 Phosphate Sensor Assay; conditions: cGMP 3 μM substrate, PDE10A2 0.25 nM
Experimental: Biochemical Human PDE10A Activity Assay—PDE10A2 Phosphate Sensor Assay
Semi Log compound dilutions starting at a final concentration of 50 μM were dispensed into a black 384 well plate alongside, DMSO and an Inhibited control using the Echo Acoustic dispenser. […] Data was analysed using a 4-parameter fit.

[2] = Determination of CNS penetration in vivo (brain to plasma partitioning, Kpuu); set-up: species or system Male Sprague Dawley Rats; conditions: male, Sprague-Dawley, brain / plasma (unbound); rat, IV, 1 mg/kg, 10-30 min post dose
Human PDE10A2 [3] = target: T1, Human PDE10A2; assay: Cell based human PDE10A activity assay - cAMP HTRF assay in HEK 293 rhPDE10A2 cell line
Experimental: Semi log compound dilutions starting at a final concentration of 10 μM were dispensed into a white 384 well plate, alongside DMSO and an Inhibited control using the Tecan D300e digital dispenser. HEK 293 cells overexpressing recombinant human PDE10A2 were seeded on top of the compounds at 2500 cells/well in a volume 5 μL/well. The plate was incubated at room temperature for 60 minutes. To induce endogenous cAMP, 5 μL/well of Forskolin at a final assay concentration of 10 μM was added to the plate. The plate was incubated at room temperature for a further 45 minutes. cAMP HTRF detection reagents were added, and the plate was incubated for 60 minutes at room temperature. […] Data was analysed using a 4-parameter fit.

[4] = system: inflamed colonic mucosa from ulcerative colitis patients; assay: Ex-vivo colon biopsy culture from ulcerative colitis patients, cytokine release (Protocol 1); type: cell-based, human
Experimental: The effect of selective PDE10A inhibition was tested on inflamed colonic mucosa from ulcerative colitis patients taken during routine endoscopy (Protocol 1 detailed below). These samples retain a disease phenotype in ex-vivo culture, secrete high basal levels of inflammatory cytokines, and represent a highly relevant and translational disease model. The effect of the PDE10A inhibitors on levels of the inflammatory cytokines IL-6 and IL-8 released from these tissue samples were measured. Both IL-6 and IL-8 are key regulators in ulcerative colitis pathology and their levels correlate with disease severity (Waldner M J et al. Master regulator of intestinal disease: IL-6 in chronic inflammation and cancer development. Semin Immunol. 26(1), 75-9 (2014); Bernardo D et al. IL-6 promotes immune responses in human ulcerative colitis and induces a skin-homing phenotype in the dendritic cells and T-cells they stimulate. Eur J Immunol. 42(5), 1337-53 (2012); Pearl D S, Cytokine mucosal expression in ulcerative colitis, the relationship between cytokine release and disease activity. J Crohns Colitis. 7(6), 481-9 (2013)).
These colon biopsies retain an inflammatory phenotype and secrete high levels of inflammatory cytokines in ex-vivo culture.
(§1) Biopsy tissue was obtained from inflamed colonic mucosa from ulcerative colitis or Crohn's disease patients during routine endoscopy. Ex-vivo biopsy cultures for the analysis of inflammatory cytokine biomarkers were run as previously described (Vossenkämper A. et al. A CD3- specific antibody reduces cytokine production and alters phosphoprotein profiles in intestinal tissues from patients with inflammatory bowel disease. Gastroenterology, 147, 172-183 (2014)). Biopsies were incubated in organ culture for 24 h with the addition of positive control compounds, or specific PDE10A inhibitors. Supernatants collected at the end of the experiment were snap-frozen and stored at −70° C. For the measurement of cytokines, the frozen culture supernatants were thawed and analysed for levels of the inflammatory cytokines using Luminex cytokine assay kits (R&D Systems) and an R&D Systems MAGPIX® analyser. Mean values ±SDs were calculated for the levels of spontaneous cytokine production measured in biopsy culture supernatants from each treatment group.

[5] = system: inflamed colonic mucosa from pharmacotherapy treatment-refractory ulcerative colitis patients; assay: Ex-vivo culture of inflamed colon tissue from surgical resection of treatment-refractory UC patients, TNFα release (Protocol 2); type: cell-based, human; conditions: 1 μM; UC donors 4 and 5; with SEB; about 18 hours; vs DMSO vehicle
other PDE family members = conditions: read-out: IC50s for other PDE family members; literature value; cited from earlier work
[6] = system: isolated human neutrophil; assay: In vitro assay of IL-8 neutrophil activation; type: cell-based
[7] = system: inflamed colonic mucosa from Crohn's Disease patients; assay: Ex-vivo colon biopsy culture from Crohn's disease patients, cytokine release (Protocol 1); type: cell-based, human; conditions: 0.1 uM; 2 independent CD patient biopsies; vs DMSO vehicle; listed as PF-2545920
Experimental: In addition, we tested the effect of selective PDE10A inhibition using 0.1 uM PF-2545920 on inflamed colonic mucosa from Crohn's Disease patients taken during routine endoscopy (Protocol 1).
as §1

[8] = 100 nM, UC donor 3, vs vehicle control
[9] = UC donors 1 and 2, PF-02545920 0.1 μM and 1 μM, TAK-063 1 uM, 24 h, vs DMSO vehicle

T1 sequence (Q9Y233 267-1055): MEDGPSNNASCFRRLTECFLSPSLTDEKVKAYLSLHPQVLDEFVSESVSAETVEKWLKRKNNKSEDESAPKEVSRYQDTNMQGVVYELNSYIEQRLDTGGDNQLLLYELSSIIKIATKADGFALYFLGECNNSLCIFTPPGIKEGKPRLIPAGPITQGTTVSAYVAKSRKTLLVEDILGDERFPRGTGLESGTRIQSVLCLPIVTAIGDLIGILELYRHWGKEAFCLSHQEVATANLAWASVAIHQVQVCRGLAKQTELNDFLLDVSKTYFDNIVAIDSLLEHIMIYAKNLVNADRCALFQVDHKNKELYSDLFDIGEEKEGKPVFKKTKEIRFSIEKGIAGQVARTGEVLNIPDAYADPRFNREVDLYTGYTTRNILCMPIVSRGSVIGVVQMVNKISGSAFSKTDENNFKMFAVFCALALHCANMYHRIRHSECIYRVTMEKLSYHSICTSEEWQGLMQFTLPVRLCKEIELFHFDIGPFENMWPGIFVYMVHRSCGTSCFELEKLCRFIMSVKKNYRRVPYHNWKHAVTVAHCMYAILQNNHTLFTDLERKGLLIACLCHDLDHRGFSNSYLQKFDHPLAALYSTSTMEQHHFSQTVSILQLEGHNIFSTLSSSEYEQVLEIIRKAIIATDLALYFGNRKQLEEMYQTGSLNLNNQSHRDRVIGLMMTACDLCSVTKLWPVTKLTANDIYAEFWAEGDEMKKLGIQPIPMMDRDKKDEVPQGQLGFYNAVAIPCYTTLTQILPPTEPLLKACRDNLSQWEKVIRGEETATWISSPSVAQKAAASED

Row | SMILES | PDE10A2 Phosphate Sensor Enzyme Assay (pIC50) (Human PDE10A2 [1]) | Kp uu [2] | IC50 (Human PDE10A2 [3]) [nM] | secreted levels of IL-6 [4, 8] | secreted levels of IL-8 [4, 8] | secreted levels of TNFα [5] | IC50 (other PDE family members) [nM] | IL-8 induced neutrophil activation [6] | secreted levels of IL-6 [7] | secreted levels of IL-8 [7] | secreted levels of IL-6 [4, 9] | secreted levels of IL-8 [4, 9]
1 | Cn1cc(-c2ccncc2)c(-c2ccc(OCc3nc4ccccc4cc3C(=O)NS(C)(=O)=O)cc2)n1 [Example 9, 2-[[4-[1-Methyl-4-(4-pyridyl)pyrazol-3-yl]phenoxy]methyl]-N-methylsulfonyl-quinoline-3-carboxamide] | 10.1 | 0.37 | 1.66 | significantly reduce | significantly reduce | – | – | – | – | – | – | –
2 | Cn1cc(-c2ccncc2)c(-c2ccc(OCc3cc(C(=O)O)c4ccccc4n3)cc2)n1 [Example 4, Ammonium 2-[[4-[1-methyl-4-(4-pyridyl)pyrazol-3-yl]phenoxy]methyl]quinoline-4-carboxylate] | 10.1 | 0.32 | 0.813 | significantly reduce | significantly reduce | – | – | – | – | – | – | –
3 | Cn1cc(-c2ccncc2)c(-c2ccc(OCc3nc4ccccn4c3C(=O)N=S(C)(C)=O)cc2)n1 [Example 20, N-[Dimethyl(oxo)-λ6-sulfanylidene]-2-[[4-[1-methyl-4-(4-pyridyl)pyrazol-3-yl]phenoxy]methyl]imidazo[1,2-a]pyridine-3-carboxamide] | 9.76 | 0.11 | 6.76 | significantly reduce | significantly reduce | – | – | – | – | – | – | –
4 | Cn1cc(-c2ccncc2)c(-c2ccc(OCc3nc4ccccc4cc3C(=O)N=S(C)(C)=O)cc2)n1 [Example 10, N-[Dimethyl(oxo)-λ6-sulfanylidene]-2-[[4-[1-methyl-4-(4-pyridyl)pyrazol-3-yl]phenoxy]methyl]quinoline-3-carboxamide] | 10 | 0.02 | 1.1 | significantly reduce | significantly reduce | – | – | – | – | – | – | –
5 | Cn1cc(-c2ccncc2)c(-c2ccc(OCc3cc(C(=O)N=S(C)(C)=O)c4ccccc4n3)cc2)n1 [Example 11, N-[Dimethyl(oxo)-λ6-sulfanylidene]-2-[[4-[1-methyl-4-(4-pyridyl)pyrazol-3-yl]phenoxy]methyl]quinoline-4-carboxamide] | 10.1 | 0.02 | 1 | significantly reduce | significantly reduce | – | – | – | – | – | – | –
6 | Cn1cc(-c2ccncc2)c(-c2ccc(OCc3ccc4ccccc4n3)cc2)n1 [PF-02545920] | – | – | – | – | – | inhibiting; also recorded: significantly reduced | > 1000 | dose dependently inhibited | inhibits; also recorded: significantly reduced | inhibits; also recorded: significantly reduced | inhibiting; also recorded: significantly reduced | inhibiting; also recorded: significantly reduced
7 | Cn1cc(-c2ccncc2)c(-c2ccc(OCc3nc4cccnc4cc3C(=O)N=S(C)(C)=O)cc2)n1 [Example 19, N-[Dimethyl(oxo)-λ6-sulfanylidene]-2-[[4-[1-methyl-4-(4-pyridyl)pyrazol-3-yl]phenoxy]methyl]-1,5-naphthyridine-3-carboxamide] | 9.43 | 0.05 | 5.37 | significantly reduce | significantly reduce | – | – | – | – | – | – | –
8 | Cn1cc(-c2ccncc2)c(-c2ccc(OCc3nc(C(=O)N=S(C)(C)=O)c4ccccc4n3)cc2)n1 [Example 17, N-[Dimethyl(oxo)-λ6-sulfanylidene]-2-[[4-[1-methyl-4-(4-pyridyl)pyrazol-3-yl]phenoxy]methyl]quinazoline-4-carboxamide] | 9.92 | 0.06 | 3.02 | significantly reduce | significantly reduce | – | – | – | – | – | – | –
9 | COc1cn(-c2ccc(-n3cccn3)cc2F)nc(-c2ccnn2-c2ccccc2)c1=O [TAK-063, 1-[2-fluoro-4-(1H-pyrazol-1-yl)phenyl]-5-methoxy-3-(1-phenyl-1H-pyrazol-5-yl)pyridazin-4(1H)-one, reference compound] | – | – | – | – | – | – | > 5000 | – | – | – | inhibiting; also recorded: significantly reduced | inhibiting; also recorded: significantly reduced
